From patent publication US20220227765A1, “PYRIDO-INDOLE ANALOGUES AS GPX4 INHIBITORS” (Ferro Therapeutics, Inc., priority 2019, published 2022)
Values after ≈ are worked out from the molar mass of the structure shown. Where two headings read alike, the source gives them in different places.

How the values were obtained:
[1] = Equilibrium solubility at different pHs and with SBECD; type: physicochemical; details: thermodynamic from solid
SJSA-1 = assay: Cell proliferation (Alamar Blue) assay, SJSA-1; type: cell-based, human; details: Homo sapiens, SJSA-1, 24 h, Table B-3, head prints SJSB-1, 24 h, read-out: IC50 (μM) SJSB-1
In short: (§1)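 Cells were seeded at 5000 cells/well and grown 16-24 h at 37° C./5% CO2. They were treated 24 h with compound at 10-0.0005 μM (3-fold dilutions, 1% DMSO). Viability was read by Alamar Blue fluorescence (ex 540/em 590 nm) after 1.5 h, and IC50 came from a variable-slope sigmoidal fit.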

[2] = Mouse plasma protein % unbound (ultracentrifuge method); type: in vitro ADME; details: for Mouse Plasma Protein % Unbound (Ultracentrifuge method, 4 h at 37° C.): Table B-6; for fraction unbound at 4 h: mouse, plasma, Table B-6, 4 h at 37° C.
[3] = CD-1 Mouse Whole Blood Stability Assay; type: in vitro ADME; details: Table B-6, incubation at 37° C.
A431 = assay: Cell proliferation (Alamar Blue) assay, A431; type: cell-based, human; details: Homo sapiens, A-431, 24 h, Table B-3, A431 cells
In short: as §1

786-O = assay: Cell proliferation (Alamar Blue) assay, 786-O; type: cell-based, human; details: Homo sapiens, 786-0, 24 h, Table B-3, 786-O cells
In short: as §1

[4] = Kinetic solubility (PBS, pH 7.4); type: physicochemical; details: aqueous buffer, kinetic from dmso stock
in vitro = details: CD-1, mouse, plasma
[5] = CD-1, mouse, plasma, 2 μM
Human blood stability = type: in vitro ADME

SMILES	solubility ([1]; aqueous buffer, pH 3.0 PBS buffer, read-out: Eq. solubility pH 3.0 PBS buffer) [µg/mL]	solubility ([1]; aqueous with cosolvent or surfactant or cyclodextrin, 20% SBECD (sulfobutyl ether cyclodextrin), read-out: Eq. solubility 20% SBECD) [µg/mL]	IC50 (SJSA-1) [µM]	Mouse Plasma Protein % Unbound (Ultracentrifuge method, 4 h at 37° C.) [2]	CD-1 Mouse Whole Blood Stability % Remaining ([3]; 0 min) [%]	CD-1 Mouse Whole Blood Stability % Remaining ([3]; 30 min) [%]	CD-1 Mouse Whole Blood Stability % Remaining ([3]; 60 min) [%]	IC50 (A431) [µM]	IC50 (786-O) [µM]	solubility kinetic ([4]; Table B-7) [µM]	fraction unbound at 2 μM (in vitro)	% Bound [5] [%]	% Remaining (t = 4 hr at 37 C.) ([5]; 4 h) [%]	fraction unbound at 4 h [2]	human blood stability % remaining (Human blood stability; 15 min) [%_15]	human blood stability % remaining (Human blood stability; 30 min) [%_30]	human blood stability % remaining (Human blood stability; 45 min) [%_45]	human blood stability % remaining (Human blood stability; 60 min) [%_60]	human blood stability % remaining (Human blood stability; 120 min) [%_120]	solubility kinetic ([4]; Table B-4) [µM]
C#CC(=O)N1[C@@H](CCCC)Cc2c([nH]c3c(F)cc(F)cc23)[C@@H]1c1ccnn1C [Compound B-34]	< 1	> 1010	0.074	Not stable	100.0	9.4	1.1	7.6	0.041	11 (≈ 4.36 µg/mL)	–	–	–	–	–	–	–	–	–	–
C#CC(=O)N1[C@@H](CCCC)Cc2c([nH]c3c(F)cc(F)cc23)[C@@H]1C1CCCCC1 [Compound B-56]	–	–	–	–	–	–	–	–	–	–	0.11	89.0	56.7	–	–	–	–	–	–	–
CCCC[C@H]1Cc2c([nH]c3c(F)cc(F)cc23)[C@H](c2ccc(N3CCN(C)CC3)c(C#N)c2)N1C(=O)CCl [Compound B-27]	–	–	0.005	–	100.0	78.0	72.7	2	0.005	–	–	–	–	0.078	38	4	1	0	0	< 1
C#CC(=O)N1[C@@H](CCCC)Cc2c([nH]c3c(F)cc(F)cc23)[C@@H]1c1ccc(C2COC2)cc1 [Compound B-29]	–	–	0.037	Not stable	100.0	18.0	3.9	> 10	0.034	–	–	–	–	–	–	–	–	–	–	–
C#CC(=O)N1[C@@H](CCCC)Cc2c([nH]c3c(F)cc(F)cc23)[C@@H]1C1CCNCC1.Cl [Compound B-26]	–	–	0.08	–	100.0	44.7	26.7	7.5	0.177	–	–	–	–	0.061	–	–	–	–	–	–
C#CC(=O)N1[C@@H](CCCC)Cc2c([nH]c3c(F)cc(F)cc23)[C@@H]1C12CC(N)(C1)C2.Cl [Compound B-22]	–	–	0.047	–	100.0	70.3	55.0	5.3	0.031	–	–	–	–	0.037	–	–	–	–	–	–
C#CC(=O)N1[C@@H](CCCC)Cc2c([nH]c3c(F)cc(F)cc23)[C@@H]1c1cncs1 [Compound B-23]	–	–	0.431	Not stable	100.0	4.0	0.5	> 10	0.507	–	–	–	–	–	–	–	–	–	–	–
